Test results as given in US8158589B2, “Peptides with the capacity to bind to transforming growth factor β1 (TGF-β1)” (Proyecto Biomedicine Cima, S.L., priority 2003, dated 2012).
Ends that are not written are not given here.

Tests used:
[1] = molecular target: T1, TGF-β1 (Mus musculus, UniProt P04202); test: Model of acute liver damage induced by CCl4, type I collagen mRNA by real time PCR; type: in vivo, mice; set-up: key to % Inhibition of type I collagen mRNA induction (in vivo TGF-β1 biological activity): Neg: negative; details: for % Inhibition of type I collagen mRNA induction (in vivo TGF-β1 biological activity): Balb/C mice, oral CCl4, 50 μg of peptide every 24 h, sacrifice after 72 hours; for inhibition of the biological activity of TGF-β1 in vivo (in words): acute liver damage, type I collagen mRNA
T1 construct: from tissue; host or cells: liver of Balb/C mice (CCl4 model); lung of C57BL/6 mice (bleomycin model)
Description: Acute liver damage generates a cascade of effects and physiological responses, including elevations in the concentrations of TGF-β1. This elevation is responsible for the expression of the type I collagen gene, among others. In this model of acute liver damage, female Balb/C mice weighing 25 to 30 g, were orally administered a dose of 2 μl of CCl4 (per gram of body weight) dissolved in an equivalent volume of corn oil (volumetric ratio of 1:1). The control group received an equivalent volume of corn oil only, and the treated groups received (following the single oral administration of CCl4 in corn oil) 50 μg of peptide in 500 μl of 1% physiological saline solution in DMSO (dimethyl sulfoxide) every 24 h. After 72 hours all animals were sacrificed, and the liver samples were processed. To evaluate mRNA expression, liver tissue was frozen in liquid nitrogen and stored at −80° C. until further use. Other liver tissue samples were stored in OCT® or Tissue-Tek® (Sakura Finetek B.V.) and processed in the same way as the samples used for mRNA studies. Other liver samples were fixed in 10% buffered formalin solution, embedded in paraffin and processed for their histological evaluation. The amount of mRNA encoding type I collagen was quantified in all groups using a quantitative polymerase chain reaction (PCR) technique. […] The capacity of the testing peptides to block the acute damage, as assessed by measuring the levels of induced type I collagen mRNA was quantified by real time PCR. […] The peptides tested were obtained by conventional solid peptide synthesis procedures (Merrifield R B. J Am Chem Soc 1963; 85:2149-2154; Atherton E et al. J Chem Soc Perkin Trans 1981; 1:538-546).

[2] = molecular target: T2, TGF-β1 (Homo sapiens, UniProt P01137); test: Biopanning of phage-displayed 15-aa peptide library on biotinylated TGF-β1, number of colonies per sequence; type: binding; set-up: purchased Roche; host or cells: added to Mv-1-Lu (CCL-64) mink lung epithelial cells; details: clones carrying the sequence among 108 colonies after the last biopanning cycle; approximate indication of affinity for TGF-β1
Text: These libraries comprise a plurality of filamentous bacteriophages (M13), each one containing a peptide genetically fused to a protein of the virus envelope—in this case bound to the N-terminal end of envelope protein pIII (FIG. 1). […] In the phage libraries, the sequence encoding the peptide originates from a sequence degenerated in each one of the 15 positions with the 20 natural amino acids, thus allowing the presentation of 1.1×10^12 possible sequences of 15 amino acids in different phages. The physical ratio, 1:1, between the peptide sequence and the DNA encoding it within the bacteriophage allows the selection (from a broad range of variants) of those sequences that specifically bind to TGF-β1. This process is carried out via an in vitro selection protocol known as “biopanning”.
This technique involves incubating a set of phages representative (to practical effects) of all the 15-aa variants, in a plate blocked with streptavidin (10 μg/ml in 0.1 M NaHCO3, during 2 h at room temperature) to which biotinylated TGF-β1 is added. […] TGF-β1 contacts the peptides carried by the phages at a concentration of […]. After about 12 hours incubation, unbound phages are eliminated by 5 washings with PBS/Tween (phosphate buffered saline/polyoxyalkylene derivatives of sorbitan fatty acid esters). […] The eluted phages are then amplified by infection in a bacterial strain (E. coli). The process is repeated three cycles so that an enrichment in the content of phages which specifically bind, and with high affinity, to TGF-β1 is achieved (FIG. 3). […] Thus, the phages selected in each cycle show more and more affinity for TGF-β1. At the end of the process, phages which have been selected for their affinity for TGF-β1, are sequenced by using primers, after isolation by tetracycline resistance of the genetically modified phages after infecting E. coli cells. […] The number of times which a sequence is repeated, corresponding to a 15 amino acids peptide carried by each clone, from the total of sequenced colonies is an indication of the degree of relative affinity of said 15 amino acids sequence for TGF-β1.
The selection of clones, obtained from the “biopanning”, was carried out by selection of the bacterial colonies infected with the phages in the presence of a bacterial antibiotic; the bacteria resistance is acquired by a tetracycline resistance gene encoded by the phage genome. Thus, only those colonies infected with bacteriophages are able to grow. This means that each colony contains the genome of only one phage coding for only one peptide presented in its surface.
A total number of 108 colonies of phage-infected bacteria were obtained from the last selection cycle of “biopanning”. The sequence of the regions coding for the peptides present in the pIII protein was carried out using primers identified with SEQ ID NO: 23. This table also reflects the number of colonies (clones) carrying said sequences.
The number of clones (colonies) of each sequence gives an approximate indication of the degree of affinity of the peptide for TGF-β1, that is, the more colonies the more binding affinity.

[3] = molecular target: T2, TGF-β1; type: cell-based; set-up: purchased Roche; host or cells: added to Mv-1-Lu (CCL-64) mink lung epithelial cells
Text: The cell line Mv-1-Lu (CCL-64, […], Virginia, USA) derives from mink pulmonary epithelium, grows as a monolayer, and responds to the presence of TGF-β1 by decreasing its proliferation (FIG. 5). Thus, the peptide-mediated inhibition of this cytokine is able to restore cell growth and reflects the capacity of the different peptides to inhibit the biological activity of TGF-β1 in vitro. The peptides tested were obtained by peptide synthesis, in accordance to conventional procedures (Merrifield R B. J Am Chem Soc 1963; 85:2149-2154; Atherton E et al. J Chem Soc Perkin Trans 1981; 1:538-546).
The Mv-1-Lu cells are cultured to confluence in complete medium [RPMI-1640 supplemented with L-glutamine, sodium pyruvate, antibiotics and 10% fetal bovine serum (FBS)] at 37° C. and in 5% CO2 in 162 cm^2 bottles (Costar Corporation, CA, USA). Following trypsinization, the cells are cultured in 200 μl of complete medium in 96-well plates at an initial density of 5,000 cells/well at 37° C. and in 5% CO2 during 6 hours to ensure adhesion. Then, different concentrations of the peptides to be tested are added, starting from 200 μg/ml, and following 200 pg/ml of TGF-β1 (Roche) are added. After 12 hours of incubation 1 μCi of methyl-3H-thymidine (Amersham Life Science, Buckinghamshire, United Kingdom) is added per well in 25 μl of clean medium (RPMI-1640). The plate is incubated for 12 more hours under the same conditions. Finally, the cells are harvested (Filtermate 196 Harvester, Packard), transferring the tritiated thymidine, incorporated in the course of DNA synthesis, to plates (UniFilter-96 GF/C®, Perkin Elmer). Following the addition of scintillation fluid, the radioactivity was quantified using a scintillation counter (Top Count, Microplate Scintillation Counter, Packard). As positive and negative control, use was made of the incorporation of tritiated thymidine in the absence and presence of TGF-β1, respectively. The inhibition of TGF-β1 activity in this test was calculated based on the following formula: […]
The negative control represents the incorporation of tritiated thymidine in the presence of TGF-β1 but in the absence of peptide, whereas the positive control refers to the incorporation of tritiated thymidine in the absence of TGF-β1 and peptide. Thus, according to the capacity of the peptides to revert the cytokine repressor effect on Mv-1-Lu cell line proliferation, percentage of TGF-β1 biological activity inhibition by the peptides can be measured (Table 2).
Comparisons have been made of the activity of truncated peptides (derived from peptide sequence SEQ ID NO: 17) versus the complete sequence, in terms of the capacity to revert the suppressor effect of TGF-β1 upon proliferation of the Mv-1-Lu cell line. To this effect, and to determine the minimum sequence of peptide SEQ ID NO: 17 capable of inhibiting the biological activity of TGF-β1 in vitro, truncated versions of this peptide were synthesized, with truncation at the N-terminal end, C-terminal end or in both ends of the molecule. The peptides tested were obtained by peptide synthesis following conventional procedures (Merrifield R B. J Am Chem Soc 1963; 85:2149-2154; Atherton E et al. J Chem Soc Perkin Trans 1981; 1:538-546). Following the same methodology described in Example 2, the activity of truncated peptides versus the complete sequence of the peptide SEQ ID NO: 17 was quantified, in terms of a proliferation assay of the Mv-1-Lu cell line.

T1 sequence (P04202 279-390 limits assumed): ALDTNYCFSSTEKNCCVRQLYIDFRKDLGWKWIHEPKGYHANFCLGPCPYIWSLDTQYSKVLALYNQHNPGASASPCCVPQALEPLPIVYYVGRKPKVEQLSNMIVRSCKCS
T2 sequence (P01137 279-390 limits assumed, species assumed): as the sequence (P04202 279-390 limits assumed) above, with S75A counted along it

Row | Sequence | % Inhibition of type I collagen mRNA induction (in vivo TGF-β1 biological activity) [1] | No. colonies [2] | % Inhibition of in vitro TGF-β1 biological activity [3] [%] | further results
1 | GWHSLLHSRYHRLAA [SEQ ID NO: 9] | 26.59% | 1 |  | 
2 | VPMALNHGVYVMVSS [SEQ ID NO: 22] | Neg | 1 |  | 
3 | RHLSHFKWLRSHGLD [SEQ ID NO: 19] | 12.12% | 1 |  | 
4 | GWITFHRRHHDRVLS [SEQ ID NO: 15] | 14.26% | 1 |  | 
5 | WHWRHRIPLQLAAGR [SEQ ID NO: 8] | Neg | 2 |  | 
6 | WHKYFLRRPLSVGLG [SEQ ID NO: 12] | Neg | 1 |  | 
7 | RRFHFHSRMVAVDNS [SEQ ID NO: 20] | 1.41% | 1 |  | 
8 | FVWVRFHRLPRQIYT [SEQ ID NO: 10] | Neg | 1 |  | 
9 | DRRIFWWSLRSAPGA [SEQ ID NO: 1] | 0.69% | 6 |  | 
10 | HRISHFAHRYLARLH [SEQ ID NO: 7] | Neg | 2 |  | 
11 | KRIWFIPRS [SEQ ID NO: 36, KRIWFIPRS] |  |  | 6.2 ± 2.5 | 
12 | RIWFIPRSSWYER [SEQ ID NO: 25, RIWFIPRSSWYER] |  |  | 6.2 ± 1.5 | 
13 | DRRIFWWSNRSAPGA [SEQ ID NO: 2] | 36.6 ± 30.7% | 1 |  | inhibition of the biological activity of TGF-β1 in vivo (in words) [1]: only inhibitory activity
14 | RLHGHRSHRFTHVAQ [SEQ ID NO: 16] | Neg | 1 |  | 
15 | RRWVRYPVHLHSPIV [SEQ ID NO: 5] | Neg | 1 |  | 
16 | KRIWFIPRSSWYER [SEQ ID NO: 33, KRIWFIPRSSWYER] |  |  | 31.4 ± 7.0 | inhibition of the biological activity of TGF-β1 in vitro (in words) ([3]; Mv-1-Lu proliferation): inhibitory activity
17 | KRIWFIPRSSWY [SEQ ID NO: 34, KRIWFIPRSSWY] |  |  | 34.4 ± 7.9 | inhibition of the biological activity of TGF-β1 in vivo (in words) [1]: capable of inhibiting the expression of collagen type I mRNA
18 | PRSSWYERA [SEQ ID NO: 32, PRSSWYERA] |  |  | 3.8 ± 1.6 | 
19 | HVRLHHYLRHRSLPN [SEQ ID NO: 21] | Neg | 1 |  | 
20 | RIWFIPRSSWYERA [SEQ ID NO: 24, RIWFIPRSSWYERA] |  |  | 9.4 ± 0.4 | 
21 | WFIPRSSWY [SEQ ID NO: 28, WFIPRSSWY] |  |  | 3.1 ± 0.9 | 
22 | IWFIPRSSWYERA [SEQ ID NO: 26, IWFIPRSSWYERA] |  |  | 4.5 ± 1.8 | 
23 | WFIPRSSWYERA [SEQ ID NO: 29, WFIPRSSWYERA] |  |  | 2.7 ± 1.8 | 
24 | IPRSSWYERA [SEQ ID NO: 31, IPRSSWYERA] |  |  | 3.4 ± 1.4 | 
25 | FIPRSSWYERA [SEQ ID NO: 30, FIPRSSWYERA] |  |  | −0.3 ± 3.0 | 
26 | KRIWFIPRSS [SEQ ID NO: 35, KRIWFIPRSS] |  |  | 6.0 ± 0.4 | 
27 | IWFIPRSSWYE [SEQ ID NO: 27, IWFIPRSSWYE] |  |  | 1.4 ± 2.5 | 
